Experimental data taken from article PMC9592870 (Molecular Diversity, 2022).

Experiments:
[1] = test system: Vero cells; conditions: CC50 Vero cells / MIC Mtb H37Rv
[2] = test system: M. chelonae ATCC 35752; test: Antimycobacterial broth microdilution MIC, non-tuberculous mycobacteria; type: cell-based; conditions: 48 h
[3] = test system: M. fortuitum ATCC 6841; test: as above; type: cell-based; conditions: 48 h

## COC(=O)c1cc(-c2cccc(NC(=O)Nc3ccccc3OC)c2)on1 [4d, Methyl 5-(3-(3-(2-methoxyphenyl)ureido)phenyl)isoxazole-3-carboxylate]
[1]
  SI selectivity index (CC50/MIC): < 20

## COC(=O)c1cc(-c2cccc(NC(=O)Nc3ccc(F)cc3)c2)on1 [4j, Methyl 5-(3-(3-(4-fluorophenyl)ureido)phenyl)isoxazole-3-carboxylate]
[1]
  SI selectivity index (CC50/MIC): > 200

## COC(=O)c1cc(-c2cccc(NC(=O)Nc3ccc(C(F)(F)F)cc3)c2)on1 [4n, Methyl 5-(3-(3-(4-(trifluoromethyl)phenyl)ureido)phenyl)isoxazole-3-carboxylate]
[1]
  SI selectivity index (CC50/MIC): > 50

## COC(=O)c1cc(-c2cccc(NC(=O)Nc3ccc(Cl)cc3Cl)c2)on1 [4r, Methyl 5-(3-(3-(2,4-dichlorophenyl)ureido)phenyl)isoxazole-3-carboxylate]
[1]
  SI selectivity index (CC50/MIC): > 50

## COC(=O)c1cc(-c2ccc(NC(=O)Nc3ccc(Cl)c(Cl)c3)cc2)on1 [4tb, Methyl 5-(4-(3-(3,4-dichlorophenyl)ureido)phenyl)isoxazole-3-carboxylate]
[1]
  SI selectivity index (CC50/MIC): > 80

## COC(=O)c1cc(-c2cccc(NC(=O)Nc3cc(OC)ccc3OC)c2)on1 [4w, Methyl 5-(3-(3-(2,5-dimethoxyphenyl)ureido)phenyl)isoxazole-3-carboxylate]
[1]
  SI selectivity index (CC50/MIC): < 20

## COC(=O)c1cc(-c2cccc(NC(=S)Nc3ccc(Cl)cc3)c2)on1 [5f, Methyl 5-(3-(3-(4-chlorophenyl)thioureido)phenyl)isoxazole-3-carboxylate]
[1]
  SI selectivity index (CC50/MIC): > 50

## COC(=O)c1cc(-c2cccc(NC(=S)Nc3ccc(C#N)cc3)c2)on1 [5i, Methyl 5-(3-(3-(4-cyanophenyl)thioureido)phenyl)isoxazole-3-carboxylate]
[2]
  MIC M. chelonae ATCC 35752: weaker inhibition
[3]
  MIC M. fortuitum ATCC 6841: weaker inhibition

## COC(=O)c1cc(-c2cccc(NC(=S)Nc3ccc(F)cc3F)c2)on1 [5k, Methyl 5-(3-(3-(2,4-difluorophenyl)thioureido)phenyl)isoxazole-3-carboxylate]
[2]
  MIC M. chelonae ATCC 35752: weaker inhibition
[3]
  MIC M. fortuitum ATCC 6841: weaker inhibition

## COC(=O)c1cc(-c2cccc(NC(=S)Nc3ccc(F)c(Cl)c3)c2)on1 [5m, Methyl 5-(3-(3-(3-chloro-4-fluorophenyl)thioureido)phenyl)isoxazole-3-carboxylate]
[2]
  MIC M. chelonae ATCC 35752: weaker inhibition
[3]
  MIC M. fortuitum ATCC 6841: weaker inhibition
